Test results reported in paper PMC11952234, “Functional profiling of synthetic camel milk-derived peptides with implication in glucose transport and diabetes” (PLOS One, 2025).
Where “and” joins values, the source holds several entries; their conditions need not be identical. Equal entries are not always repeated. Where two headings read alike, the source gives them in different places. Marks after values point to notes of the source that are not given here. Residues, ends and D or L forms follow the SMILES beside them.

What was measured:
[1] = tested on: IR phosphorylation (pIR-Tyr1334) in HepG2 cells; assay: IR phosphorylation by western blot in HepG2 cells; type: cell-based, human; conditions: 1 μM insulin + 0.1 mg/ml peptide, 10 minutes, 37°C
Method: (§1) Following treatment, cells were then lysed with RIPA lysis buffer and thereafter centrifuged at 12000 × g for 30 minutes. Thereafter, the extracted cell lysate proteins were quantified using the bicinchoninic acid (BCA) protein assay. To examine the phosphorylation status of IR and AKT, 30-40 μg of proteins were loaded on 10% SDS-PAGE gel followed by western blot using the following antibodies: the mouse monoclonal anti-phospho-IR (pIR-Tyr1334)(1:1000 dilution) and the mouse monoclonal anti-phospho-AKT (pAKT-S473)(1:2000 dilution) as previously described. The corresponding total proteins loaded were also analyzed in parallel using the specific antibodies against the native forms of the different proteins. Densitometry analysis of the different western blots was performed using Image Studio Version 5.2 software from LICOR (Lincoln, Nebraska, USA).

[2] = molecular target: T1, insulin receptor (IR); interaction of IR-Rluc with IRS1-YFP in HEK293 cells (Homo sapiens, UniProt P06213); assay: BRET assay of IR activation (IR-Rluc/IRS1-YFP), single treatment, dose-response; type: cell-based; conditions: HEK293, 1 hour, 37°C, minimal data set for Figure 1, average
T1 construct: expressed in transfected cells; host or cells: HEK293 cells, transient co-transfection; plasmids provided by Dr. Tarik Issad (Cochin Institute, Paris)
Method: (§2) HepG2 and HEK293 cells were maintained at 37°C, 5% CO2 in complete RPMI and Dulbecco’s modified Eagle’s medium (DMEM), respectively, containing 0.3 mg/ml glutamine, 100 IU/ml penicillin, and 100 µg/ml streptomycin) supplemented with 10% fetal calf serum (Gibco, Carlsbad, CA, USA). The transient transfection in HEK293 cells was carried out in 75 cm flask containing 10^7 cells using Lipofectamine 2000 and 5 µg of IR-Rluc and 5 µg of IRS1-YFP (for BRET and phosphorylation experiments) as previously described. All assays were performed 48 hours post-transfection.
(§3) BRET technology was used for IR activation and its interaction with IRS1 as previously described. […] Following treatments, 10 μl of Coelenterazine h was added to a final concentration of 5 µ M and BRET measurements were carried out using the Tristar 2 multi-label plate reader (Berthold, Germany), allowing luminescence recording and signal integration at 480 nm and 540 nm.
(§4) Statistical analyses were performed statistical significance between the different treatments and conditions as indicated in the figures and tables and their captions. […] The significance is indicated in the figures by stars (****p-value < 0.0001, ***p-value < 0.001, ** p-value < 0.01, * p-value < 0.05), and the absence of stars means non-significant (p-value > 0.05). However, the two-way ANOVA was used for multiple comparisons to determine the statistical significance between the different peptides when compared to each other in the different assays as described in the tables.

[3] = tested on: HepG2 cells; assay: Glucose uptake assay (Glucose Uptake-Glo) in HepG2 cells; type: cell-based, human; conditions: 1 hour, 37°C; for glucose uptake, specific luminescence signal, Average: Average of Experiments 1-5, HepG2, 0.1 mg/ml peptide or 1 μM insulin, minimal data set for Figure 5; for % of glucose uptake: HepG2 cells, 0.1 mg/ml peptide or 1 μM insulin, % of insulin's response taken as 100%, mean ± SD of five independent experiments in triplicate
Method: Glucose uptake in HepG2 cells was carried out using Glucose Uptake-Glo Assay (Promega). For this, cells seeded in a 96-well white plate (50,000 cells/well) were first washed with PBS and starved in phenol red-, glucose-, and serum-free medium (Dulbecco’s modified Eagle’s medium containing 0.01 mM HEPES, 0.3 mg/ml glutamine, 100 IU/ml penicillin, and 100 µg/ml streptomycin). […] The treatment was removed, and the cells were washed once with PBS and then incubated with 50 μL/well of freshly prepared 2-deoxyglucose (500 μM) for 10 minutes at room temperature. The uptake process was stopped and neutralized, followed by the addition of 50 μl/well of 2-deoxyglucose-6-phosphate (2DG6P) detection reagent and incubation for 15-60 minutes at room temperature. The glucose-6-phosphate dehydrogenase (G6PDH) oxidizes 2DG6P to 6-phosphodeoxygluconate (6PDG) and reduces NADP + to NADPH. The reductase uses NADPH to convert the proluciferin to luciferin, which is then used by Ultra-Glo™ recombinant luciferase to produce luminescence. This luminescence, proportional to the amount of 2-deoxyglucose transported inside the cells upon treatment, was then measured using a 0.3–1 second integration on GloMax® Discover luminometer according to Glucose Uptake-Glo™ protocol.

[4] = tested on: insulin receptor (IR); insulin-induced IR-Rluc/IRS1-YFP BRET in HEK293 cells; assay: BRET assay of IR activation, peptides combined with insulin; type: cell-based, human; conditions: for insulin-induced BRET, % of insulin's response in the vehicle, Average: Average of Experiments 1-7; for insulin-induced BRET, % of insulin's response in the vehicle, Average / insulin-induced BRET, % of insulin's response in the vehicle / % of maximal BRET (insulin-induced): 1 μM insulin + 0.1 mg/ml peptide; for insulin-induced BRET, % of insulin's response in the vehicle, Average / insulin-induced BRET, % of insulin's response in the vehicle: HEK293, minimal data set for Figure 2; for % of maximal BRET (insulin-induced): 1 hour, 37°C, % of insulin's response in the vehicle taken as 100%, mean ± SD of five to seven independent experiments in triplicate; for profile on insulin-dependent BRET response in combined treatment (in words): compared to insulin alone (Vehicle)
Method: as §2, §3
as §4, with “For BRET, the data were normalized by taking as 100% of the maximal insulin-induced BRET signal in the vehicle and analyzed using GraphPad Prism software (San Diego, CA, USA). Statistical” for “Statistical”, “tables. In this case, the different letters indicate statistically significant effects (p-value < 0.05), while the same letters indicate no significant difference between the different treatments compared to each other.” for “tables.”

[5] = tested on: AKT phosphorylation (pAKT-S473) in HepG2 cells; assay: AKT phosphorylation by western blot in HepG2 cells; type: cell-based, human; conditions: 1 μM insulin + 0.1 mg/ml peptide, 10 minutes, 37°C
Method: as §1

[6] = HEK293, read-out: BRET, % of the maximal response of insulin, Average, peptide 0.001 mg/ml
[7] = HEK293, read-out: BRET, % of the maximal response of insulin, Average, peptide 0.005 mg/ml
[8] = HEK293, read-out: BRET, % of the maximal response of insulin, Average, peptide 0.01 mg/ml
[9] = HEK293, read-out: BRET, % of the maximal response of insulin, Average, peptide 0.05 mg/ml
[10] = HEK293, read-out: BRET, % of the maximal response of insulin, Average, peptide 0.1 mg/ml
[11] = HEK293, read-out: BRET, % of the maximal response of insulin, Average, peptide 0.5 mg/ml
[12] = HEK293, read-out: BRET, % of the maximal response of insulin, Average, peptide 1 mg/ml
[13] = HEK293 cells, 0.1 mg/ml peptide + 1 μM insulin

T1 sequence (P06213 28-758 limits assumed): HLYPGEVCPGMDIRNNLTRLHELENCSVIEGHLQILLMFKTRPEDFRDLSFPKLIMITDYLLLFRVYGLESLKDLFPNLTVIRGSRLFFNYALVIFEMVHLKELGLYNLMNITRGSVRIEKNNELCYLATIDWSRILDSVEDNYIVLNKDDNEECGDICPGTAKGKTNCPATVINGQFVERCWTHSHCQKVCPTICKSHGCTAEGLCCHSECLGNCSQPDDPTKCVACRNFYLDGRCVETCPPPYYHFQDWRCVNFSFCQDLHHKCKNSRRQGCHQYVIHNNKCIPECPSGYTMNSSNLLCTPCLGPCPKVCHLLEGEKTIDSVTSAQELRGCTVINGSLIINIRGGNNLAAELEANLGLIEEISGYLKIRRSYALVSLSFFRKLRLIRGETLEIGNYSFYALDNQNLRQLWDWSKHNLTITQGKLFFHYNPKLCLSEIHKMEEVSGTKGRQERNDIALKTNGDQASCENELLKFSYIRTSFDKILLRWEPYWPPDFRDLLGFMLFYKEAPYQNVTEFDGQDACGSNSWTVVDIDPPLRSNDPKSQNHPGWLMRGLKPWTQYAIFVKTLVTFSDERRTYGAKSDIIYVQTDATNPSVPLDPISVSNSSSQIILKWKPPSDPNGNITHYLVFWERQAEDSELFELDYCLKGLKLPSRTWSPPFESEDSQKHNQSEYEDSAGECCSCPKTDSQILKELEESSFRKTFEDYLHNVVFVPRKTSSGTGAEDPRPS
T1 sequence (P06213 763-1382 limits assumed): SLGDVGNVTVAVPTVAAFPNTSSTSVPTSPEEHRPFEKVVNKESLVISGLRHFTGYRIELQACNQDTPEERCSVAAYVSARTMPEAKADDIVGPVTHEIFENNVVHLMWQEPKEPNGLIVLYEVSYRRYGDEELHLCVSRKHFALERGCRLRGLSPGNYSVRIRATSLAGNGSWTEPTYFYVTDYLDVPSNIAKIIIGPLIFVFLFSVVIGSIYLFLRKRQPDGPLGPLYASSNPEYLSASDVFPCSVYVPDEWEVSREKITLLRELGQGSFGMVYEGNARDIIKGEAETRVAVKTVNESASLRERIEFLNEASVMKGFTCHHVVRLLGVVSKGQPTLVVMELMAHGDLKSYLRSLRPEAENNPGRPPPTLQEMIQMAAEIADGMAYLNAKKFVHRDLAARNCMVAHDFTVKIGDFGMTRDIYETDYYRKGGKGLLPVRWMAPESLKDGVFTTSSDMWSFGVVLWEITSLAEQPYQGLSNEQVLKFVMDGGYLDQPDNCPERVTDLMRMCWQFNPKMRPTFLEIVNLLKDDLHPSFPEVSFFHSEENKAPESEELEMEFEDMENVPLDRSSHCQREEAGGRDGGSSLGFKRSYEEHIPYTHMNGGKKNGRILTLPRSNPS

Emax [2, 6] [%] | Emax [2, 7] [%] | Emax [2, 8] [%] | Emax [2, 9] [%] | Emax [2, 10] [%] | Emax [2, 11] [%] | Emax [2, 12] [%] | Structure (SMILES) | glucose uptake, specific luminescence signal, Average [3] | % of glucose uptake [3] | insulin-induced BRET, % of insulin's response in the vehicle, Average [4] | insulin-induced BRET, % of insulin's response in the vehicle ([4]; Experiment 1) | insulin-induced BRET, % of insulin's response in the vehicle ([4]; Experiment 2) | insulin-induced BRET, % of insulin's response in the vehicle ([4]; Experiment 3) | insulin-induced BRET, % of insulin's response in the vehicle ([4]; Experiment 4) | insulin-induced BRET, % of insulin's response in the vehicle ([4]; Experiment 6) | insulin-induced BRET, % of insulin's response in the vehicle ([4]; Experiment 7) | % of maximal BRET (insulin-induced) ([4]; HEK293 cells) | profile on insulin-dependent BRET response in combined treatment (in words) [4, 13] | insulin-induced AKT phosphorylation, combined treatment (in words) [5] | other results
6.9 | 19.9 | 32.1 | 47.3 | 59.2 | 68.7 | 58.9 | CSCC[C@H](NC(=O)[C@H](Cc1c[nH]cn1)NC(=O)[C@H](CS)NC(=O)[C@@H]1CCCN1C(=O)[C@H](CC(C)C)NC(=O)[C@@H]1CCCN1C(=O)[C@@H]1CCCN1C(=O)[C@H](CC(C)C)NC(=O)[C@H](CS)NC(=O)[C@H](CS)NC(=O)[C@H](C)NC(=O)[C@@H](NC(=O)[C@H](C)NC(=O)[C@@H]1CCCN1)C(C)C)C(=O)O [Peptide P2] (H-PAVACCLPPLPCHM-OH; N-terminus and C-terminus assumed) | 1417300 | 56 ± 9^b % | 52.0 | 76.0 | 33.7 | 14.3 | 58.1 | 70.5 | 56.8 | 52 ± 8% and 52 ± 8^b % | antagonistic | – | insulin-induced IR phosphorylation, combined treatment (in words) [1]: no inhibitory action; insulin-induced BRET, % of insulin's response in the vehicle ([4]; Experiment 5): 54.3; decrease of the insulin-dependent BRET response [4, 13]: ~ 50%
7.4 | 26.1 | 31.2 | 44.3 | 40.4 | 50.8 | 41.1 | CC(C)[C@H](N)C(=O)N1CCC[C@H]1C(=O)N[C@@H](Cc1ccccc1)C(=O)O [Peptide P7, VPF] (H-Val-Pro-Phe-OH; N-terminus and C-terminus assumed) | 2605600 | – | 146.7 | – | 149.4 | 179.1 | 160.6 | 120.3 | 124.3 | 147 ± 11^d % | potentiating | slightly potentiated | –
18.3 | 25.4 | 35 | 44.5 | 45.6 | 47.9 | 40.4 | CC(C)C[C@H](N)C(=O)N1CCC[C@H]1C(=O)N[C@H](C(=O)N1CCC[C@H]1C(=O)O)C(C)C [Peptide P6, LPVP] (H-LPVP-OH; N-terminus and C-terminus assumed) | 3425500 | 135 – 150% and 136 ± 16^d % | 140.3 | 115.3 | 195.4 | 142.3 | 129.2 | 119.3 | – | 135 ± 13^d % | potentiating | slightly potentiated | –
